Patent US12569459B2, “Compositions and methods for treating pulmonary edema or lung inflammation” (priority 2020, dated 2026)

Experiments:
[1] = single oral dose of 50 micrograms; cited from earlier work
[2] = Phase I/II trial of instilled T3: serum thyroid hormone levels; assay type: in vivo, human
Text: Ten milliliters (mls) of reformulated, pH-adjusted commercial intravenous T3 solution (Par Pharmaceutical, Navi Mumbai, India; and XGen Pharmaceuticals DJB, Inc., Horseheads, NY) was instilled directly into the airspaces via a suction catheter in the endotracheal tube of intubated patients with ARDS. […] The study was approved by the Essentia IRB (Duluth, MN) and listed on ClinicalTrials.gov (NCT04115514).
Subsequent doses were given on days 4, 6, and 7. […] Despite Klebsiella aerogenes positive sputum culture, they were extubated on ventilator day 11. After discharge from the ICU, they had some confusion and delirium.

[3] = GLP toxicity phase: intratracheal instillation once daily for five days; assay type: in vivo, Sprague-Dawley rats; details: for Body weight: female rats, at terminal euthanasia vs pre-dose
Description: Safety studies are described in Example 3, below. In a safety study conducted in compliance with Good Laboratory Practices (GLPs), 0.3 mL (300 μl) was administered to rats weighing 250-350 grams via intratracheal instillation daily for five consecutive days. […] The calculated dose based on lung weight was about 1.57 μg/g wet lung weight.
This study was conducted using both male and female Sprague-Dawley rats (Envigo, Huntingdon, United Kingdom). Evaluation of the safety of the tracheal route of instillation for liothyronine sodium injection in human clinical trials can be accomplished in this species at appropriate dose levels. Furthermore, responses to thyroid hormone in rats are similar to responses in humans, and the choice of the rat model is based in large part on pharmacologic data from studies of thyroid hormone and associated receptors and physiological responses in rat lung. The University of Minnesota is accredited by the Association for the Assessment and Accreditation of Laboratory Animal Care, International (AAALAC) and registered with the United States Department of Agriculture to conduct research in laboratory animals. Animal studies conformed to NIH guidelines (Guide for the Care and Use of Laboratory Animals. NIH publication No. 86-23. Revised 1985). The protocol was reviewed and approved, as applicable, by the Institutional Animal Care and Use Committee (IACUC) at the University of Minnesota for compliance with regulations prior to study initiation or implementation of amended activities.
(§1) Sixty animals (plus two spare animals/sex/group) were anesthetized and dosed via intratracheal instillation of test or control materials for five consecutive days. On the day after the last dose a terminal blood collection was performed for clinical pathology, after which animals were euthanized and a gross examination of all organs was performed by a board-certified veterinary pathologist. Select tissues were collected for histopathology. […] Terminal blood collection was performed at two designated time points per animal up to 24 hours after administration for toxicokinetic evaluation. TK animals were euthanized without further evaluation after the final blood collection. All animals were acclimated for a minimum of seven days prior to the dosing procedure. Animals underwent baseline observations and examinations prior to the initiation of the study, and clinical observations and body weight monitoring were performed throughout the in-life portion of the study. All animals received the same dose volume (0.3 mL) of either test or control materials. This maximum feasible dose (MFD) is constrained by the maximum volume that can be safely and reproducibly (over five days) instilled into lungs of rats weighing 250 g to 350 g, which was determined in preliminary toxicology studies to be 0.3 mL. Actual doses delivered are reported as both μg/kg body weight and μg/gm wet lung weight. The toxicity phase animals were 72-135 days of age at the time of initial dosing. Males weighed between 256.52 g and 307.50 g with a mean±standard deviation of 286.74±11.77 g, and females weighed between 250.46 g and 299.01 g with a mean±standard deviation of 260.64±10.34 g. The TK phase animals were 68-144 days of age at the time of initial dosing. Males weighed between 261.23 g and 316.19 g; females weighed between 250.06 g and 280.32 g.
Test and control materials were drawn into dosing syringes using aseptic technique. Using a 18G needle, 0.5 mL of air was drawn into a 1 cc syringe followed by 0.3 mL (300 μL) of the solutions. Animals were anesthetized with a combination of ketamine, 40 mg/kg to 200 mg/kg, and xylazine, 1 mg/kg to 7 mg/kg intraperitoneally (IP), to effect. The dose was adjusted daily, as needed, based on individual animal response and recovery. Depth of anesthesia was evaluated by toe pinch, and eye lubricant was applied to the eyes. […]

in vivo = assay: in vivo; design: species or system Sprague-Dawley rats; details: Sprague-Dawley, rat; for Cmax_D / Vz_F_obs / AUC(0-inf): inhaled or intranasal; for AUC(0-inf): 2.73 ug
Description: as §1
For toxicokinetic experiments, rats were anesthetized with combination of ketamine 40 mg/kg to 200 mg/kg and xylazine 1 mg/kg to 7 mg/kg, intraperitoneally (IP), to effect for dosing procedures, and dosed intratracheally with liothyronine sodium injection as previously described. Depending on the duration of time between dosing and the first or second blood collection time points, animals either had blood collected while still anesthetized under the injectable anesthetics, or if recovered, they were anesthetized with Isoflurane 2-5% and oxygen 1-1.5 L/minute by inhalation anesthesia via nose cone, as needed, to maintain adequate anesthesia depth (assessed by toe pinch). Topical proparicaine anesthetic ophthalmic solution was applied to each eye prior to performing the first blood collection and allowed time to take effect. Collection of serum samples for TK analysis was as described for serum chemistry samples above, and samples were stored at ≤−70° C. until assayed. Animals were euthanized with EUTHASOL (Virbac Corp., Fort Worth, TX)≥86 mg/kg IP to effect following the final blood collection.
For assessment of serum T3 levels samples were sent to the Fairview University of Minnesota Medical Center East Bank Diagnostic Laboratory for analysis, a clinical laboratory certified by CLIA and CAP. Prior to sending serum samples to the analytical lab each sample was diluted 1:4 or 1:8 in normal (0.9%) saline. […] Samples were analyzed by a chemiluminescence assay for total triiodothyronine (T3).
Toxicokinetic parameters were estimated using Phoenix 64 WinNonlin pharmacokinetic software version 7.0. (Pharsight Corp., Mountain View, CA). A non-compartmental (NCA) approach consistent with the route of administration was used for parameter estimation. […] Whenever possible, mean concentrations were derived from three animals/gender/time point. Parameters were estimated using sampling times relative to the start of each dose administration. The raw data was converted to ng/ml of serum by dividing the […] values by 100 and then multiplying by the dilution factor for that sample, either 4 or 8. […]

[4] = females, 1 day after fifth dose

## N[C@@H](Cc1cc(I)c(Oc2ccc(O)c(I)c2)c(I)c1)C(=O)O [T3, triiodothyronine]
[1]
  Time of peak serum concentration: 2.5 h
  Time of physiologic effect of increased heart rate: five hours
[2]; Patient 1, four 50-μg daily instilled doses, all days of treatment
  Serum free T3 levels: 1.9 to 3.4 pg/mL
[2]; Patient 2, escalating daily instilled doses 5, 10, 25, 50 μg
  Serum free T3 levels: <1.5 to 2.2 pg/mL
[3]; all toxicity phase animals
  Gross pathology at necropsy: No evidence of toxicity was observed grossly
[3]; during the study
  Clinical observations: No adverse T3 related clinical observations were observed
[3]; end organs examined
  Treatment-related macroscopic or microscopic findings: no macroscopic or microscopic findings in any of the end organs examined
[3]; toxicity phase
  Body weight: weighed slightly less than their pre-dose weight
[3]; toxicity phase, listed as liothyronine sodium
  Body weight: did not regain body weight at the same rate as males or as in control groups
[3]; [4]
  Hematology vs control groups: mildly increased reticulocyte count and degree of polychromasia
  Serum chemistry vs control groups: slight statistical difference in the mean albumin concentration
[3]; five days intratracheal instillation
  Organ weight of the lungs: no differences in the organ weight of the lungs
[3]; males, 1 day after fifth dose
  Hematology parameters vs control groups: no statistical or clinically significant changes
  Serum chemistry vs control groups: slight difference in the mean globulin level
[3]; toxicity phase, T3 group, ascribed to colon impaction and instillation procedure
  Deaths after dose administration: two T3 test animals that died after dose administration
[3]; ~2.7 μg in 0.3 mL intratracheally daily for five consecutive days
  Complications or changes (histopathologic, physiologic, laboratory value assessments): No significant complications or changes were observed
In vivo; female
  Cl_F_obs: 30.10 mL/h
  HL_Lambda_z: 2.85 h
  Cmax_D: 6.12 ng/mL/µg
  Vz_F_obs: 123.60 mL
  AUC(0-inf): 89.7 ng·h/mL
In vivo; male
  Cl_F_obs: 74.29 mL/h
  HL_Lambda_z: 3.17 h
  Cmax_D: 2.44 ng/mL/µg
  Vz_F_obs: 339.44 mL
  AUC(0-inf): 36.3 ng·h/mL
